Measured values published in ChEMBL document CHEMBL1201862, “PubChem BioAssay data set” (2004).
Activity calls are given as the source filed them.

Tests used:
[1] = blockers of HIV-1 ZM109 envelope-driven cell-cell fusion – HeLa effector, CEM target cells, luciferase, cherry-pick, dose response (AID 652058); format: functional, cell-based;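 note: luciferase signal from HIV-1 Env mediated cell-cell fusion of effector and target cells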
[2] = molecular target: Heat shock protein HSP 90-alpha (Homo sapiens, UniProt P07900); assay: Luminescence-based dose response biochemical high throughput screening assay for inhibitors of the Heat Shock Protein 90 (HSP90). [Related pubchem assays: 1831 (Summary AID.), 1846 (Confirmation screen.), 1789 (Primary screen.)]
[3] = blockers of HIV-1 envelope-mediated cell-cell fusion – cherry-pick, dose response (AID 652057); format: functional, cell-based
Hexokinase HKDC1 = molecular target: T1, Hexokinase HKDC1 (Homo sapiens, UniProt Q2TB90); assay: inhibition of HKDC1 glucose phosphorylation – biochemical, W721R variant, dose response (AID 504729); format: functional
T1 sequence (Q2TB90 whole entry): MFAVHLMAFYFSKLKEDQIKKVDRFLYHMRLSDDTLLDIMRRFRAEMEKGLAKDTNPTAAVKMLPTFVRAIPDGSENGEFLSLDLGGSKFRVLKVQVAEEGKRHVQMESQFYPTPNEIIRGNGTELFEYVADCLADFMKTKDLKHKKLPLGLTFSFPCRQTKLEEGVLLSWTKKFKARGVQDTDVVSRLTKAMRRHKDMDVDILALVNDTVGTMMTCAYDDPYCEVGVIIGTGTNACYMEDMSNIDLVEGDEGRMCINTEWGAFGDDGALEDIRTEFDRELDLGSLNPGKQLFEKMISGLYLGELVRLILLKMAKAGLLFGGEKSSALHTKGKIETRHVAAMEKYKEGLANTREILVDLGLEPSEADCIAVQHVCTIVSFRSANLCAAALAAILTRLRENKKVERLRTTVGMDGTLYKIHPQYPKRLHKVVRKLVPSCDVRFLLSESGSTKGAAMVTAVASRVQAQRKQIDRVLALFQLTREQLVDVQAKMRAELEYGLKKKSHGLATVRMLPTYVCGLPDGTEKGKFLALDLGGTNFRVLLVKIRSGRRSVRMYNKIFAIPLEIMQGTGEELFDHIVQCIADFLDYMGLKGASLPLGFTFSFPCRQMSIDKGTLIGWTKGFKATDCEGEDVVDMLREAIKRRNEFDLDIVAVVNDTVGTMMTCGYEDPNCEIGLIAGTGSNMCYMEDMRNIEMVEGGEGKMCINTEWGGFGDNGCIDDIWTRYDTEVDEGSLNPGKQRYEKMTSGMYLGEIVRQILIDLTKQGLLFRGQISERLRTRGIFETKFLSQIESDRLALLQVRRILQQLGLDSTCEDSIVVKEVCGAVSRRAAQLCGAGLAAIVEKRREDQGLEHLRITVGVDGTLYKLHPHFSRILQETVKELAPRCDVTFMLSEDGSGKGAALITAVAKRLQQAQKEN

Cc1cc(C)c(S(=O)(=O)/N=C2\C=C(Nc3ccc(C(=O)O)cc3)C(=O)c3ccccc32)c(C)c1
active: AC50 [1] 6.51 µM | IC50 [2] 1.68 µM | AC50 [3] 12.4 µM | IC50 (Hexokinase HKDC1) 15.2 µM
